Measured values from US9663486B2, “Selectively substituted quinoline compounds” (EISAI R&D MANAGEMENT CO., LTD., priority 2013, dated 2017).

Biological target: T1, Human TLR7 (Homo sapiens, UniProt Q9NYK1)
T1 construct: stably and individually express human TLR4, TLR7 or TLR9 full-length ORF cDNAs; host or cells: HEK-293 (ATCC) with ELAM-1 NF-kappaB luciferase reporter
T1 sequence (Q9NYK1 27-1049): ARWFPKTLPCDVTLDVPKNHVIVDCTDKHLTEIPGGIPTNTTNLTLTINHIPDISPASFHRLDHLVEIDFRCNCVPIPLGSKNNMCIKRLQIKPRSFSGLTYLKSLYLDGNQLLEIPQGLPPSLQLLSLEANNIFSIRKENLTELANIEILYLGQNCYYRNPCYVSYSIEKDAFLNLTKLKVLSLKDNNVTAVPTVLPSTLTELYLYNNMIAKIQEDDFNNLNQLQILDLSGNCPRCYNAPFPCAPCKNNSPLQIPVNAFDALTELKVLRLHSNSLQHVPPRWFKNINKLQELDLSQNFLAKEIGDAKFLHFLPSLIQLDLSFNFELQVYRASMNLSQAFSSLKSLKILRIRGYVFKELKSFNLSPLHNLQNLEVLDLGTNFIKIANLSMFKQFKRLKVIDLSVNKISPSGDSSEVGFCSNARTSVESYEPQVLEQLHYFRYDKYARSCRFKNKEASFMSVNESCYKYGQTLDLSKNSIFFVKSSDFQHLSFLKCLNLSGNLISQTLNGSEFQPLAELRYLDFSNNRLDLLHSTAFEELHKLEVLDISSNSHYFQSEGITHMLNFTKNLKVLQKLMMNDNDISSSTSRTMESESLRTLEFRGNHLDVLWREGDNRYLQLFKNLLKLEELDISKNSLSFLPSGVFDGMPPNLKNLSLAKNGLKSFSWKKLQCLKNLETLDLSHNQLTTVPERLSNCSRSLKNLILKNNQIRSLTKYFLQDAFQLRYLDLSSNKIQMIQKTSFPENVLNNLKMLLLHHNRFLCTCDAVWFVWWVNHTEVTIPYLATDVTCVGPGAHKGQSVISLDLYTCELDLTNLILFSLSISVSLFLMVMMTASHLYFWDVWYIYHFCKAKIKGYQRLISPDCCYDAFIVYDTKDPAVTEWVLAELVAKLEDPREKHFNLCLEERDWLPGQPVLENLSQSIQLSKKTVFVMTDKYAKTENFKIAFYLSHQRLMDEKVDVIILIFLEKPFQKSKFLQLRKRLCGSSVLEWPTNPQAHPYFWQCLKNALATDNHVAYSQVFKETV
Test: HEK-293 NFkB-luciferase reporter assay, CL097 stimulation
Type: cell-based
Conditions: ligand CL097
Excerpt: HEK-293 cells (ATCC) were engineered to stably express a NF-kappaB transcription factor inducible E-selectin (ELAM-1) luciferase reporter derived from the plasmid pGL3 (Promega) containing base pairs −2241 bp to −254 bp from the promoter of the human E-selectin gene (Accession No. NM_000450). These cells were then subsequently engineered to stably and individually express human TLR4, TLR7 or TLR9 full-length ORF cDNAs. Human TLR4 cDNA (Accession No. NM_138554) was cloned into pcDNA 3.0 expression vector (Invitrogen). TLR4 transfected cells were also engineered to express human MD-2 co-receptor [MD-2 cDNA (Accession No. NM_015364) was cloned into the pEF-BOS vector] and were supplemented with 10 nM soluble CD14 (R&D Systems) in the media to optimize LPS responsiveness. Human TLR9 cDNA (Accession No. NM_017442) was cloned into the pBluescript II KS vector (Agilent). Human TLR7 cDNA (Accession No. NM_016562) was obtained from OriGene. HEK-293 cells stably expressing human TLR8 (Accession No. NM_138636) or mouse TLR7 (Accession No. NM_133211) were purchased from InvivoGen and were then stably transfected with pNiFty2(NF-kappaB)-luciferase reporter plasmid (InvivoGen). Each cell type was plated in Dulbecco's modified Eagle's medium (DMEM) containing 10% fetal bovine serum (FBS) at a density of 2.22×10^5 cells/ml into a 384-well plate and incubated for 2 days at 37° C., 5% CO2. […]

C[C@H]1C[C@@H](N)CN(c2ccc(C#N)c3ncccc23)C1 [ER-888840, 5-((3R,5S)-3-amino-5-methylpiperidin-1-yl)quinoline-8-carbonitrile]
IC50: 0.2 nM
